Results on three molecules are retold here after US11866433B2, “Diarylthiohydantoin compound as androgen receptor antagonist” (CHIA TAI TIANQING PHARMACEUTICAL GROUP CO., LTD., priority 2017, dated 2024).

Assay [1] concerns Human prostate cancer LNCaP-FGC cells. Briefly: In vivo pharmacodynamic study on subcutaneous xenograft tumor model of human prostate cancer LNCaP-FGC cells. More on the design: species or system CB-17 SCID mice. The settings on record: after 21 days of administration, vs solvent control. Here is the method: 2.1 Experimental Animals • Species: Mice • Strain: CB-17 SCID mice • Week age and body weight: 6-8 weeks old, 18-22 g body weight • Gender: male • Supplier: Beijing Vital River Laboratory Animal Technology Co., Ltd • Animal Certificate No.: 11400700184227 3. Experimental Method and Steps 3.1 Cell Culture
Human prostate cancer LNCaP-FGC cells (ATCC, Manassas, Virginia) were cultured in vitro monolayers under the culture conditions of RPM11640 medium supplemented with […] fetal bovine serum at 37° C. with 5% CO2. Routine digestion treatment with trypsin-EDTA was performed twice a week for passage. When the cell saturation was 80%-90%, the cells were collected, counted, and inoculated.
0.2 mL (10×10^6) of LNCaP-FGC cells (10×10^6+Matrigel, 1:1) was inoculated subcutaneously to the right back of each CB-17 SCID mouse. When the average tumor volume reached 100-150 mm^3, administration in groups was started.
The tumor diameters were measured with a vernier caliper twice a week. The calculation formula of the tumor volume is: V=0.5a×b^2, wherein a and b represent the long diameter and the short diameter of the tumor, respectively. The antitumor efficacy of the compounds were evaluated by TGI (%) or a relative tumor proliferation rate T/C (%). TGI(%)=[(1−(average tumor volume of a treatment group at the end of drug administration−average tumor volume of the treatment group at the beginning of drug administration))/(average tumor volume of the vehicle control group at the end of treatment−average tumor volume of the vehicle control group at the beginning of treatment)]×100%. The calculation formula of the relative tumor proliferation rate T/C (%) is as follows: T/C %=TRTV/CRTV×100% (TRTV: RTV of a treatment group; CRTV: RTV of a negative control group). The relative tumor volume (RTV) is calculated based on the tumor measurement results, and the calculation formula is RTV=Vt/V0, wherein V0 is the average tumor volume measured at the time of administration in groups (i.e., do), Vt is the average tumor volume at one measurement, and TRTV and CRTV are the data obtained on the same day.
The statistical analysis includes mean and standard error of mean (SEM) of the tumor volume at each time point for each group. […] The comparison between two groups was analyzed by T-test, and the comparison between three or more groups was analyzed by one-way ANOVA. If there was a significant difference in the F value, the Games-Howell method was used for testing. If there was no significant difference in the F value, the Dunnet (2-sided) method was used for analysis. All data analysis was performed by using SPSS 17.0. “p<0.05” was considered a significant difference.
For orientation: A xenograft is tissue or cells of one species grown in another, often human tumour cells in immunodeficient mice.

Assay [2] has as its target T1, androgen receptor (AR) (Homo sapiens, UniProt P10275).
T1 sequence (P10275 1-920): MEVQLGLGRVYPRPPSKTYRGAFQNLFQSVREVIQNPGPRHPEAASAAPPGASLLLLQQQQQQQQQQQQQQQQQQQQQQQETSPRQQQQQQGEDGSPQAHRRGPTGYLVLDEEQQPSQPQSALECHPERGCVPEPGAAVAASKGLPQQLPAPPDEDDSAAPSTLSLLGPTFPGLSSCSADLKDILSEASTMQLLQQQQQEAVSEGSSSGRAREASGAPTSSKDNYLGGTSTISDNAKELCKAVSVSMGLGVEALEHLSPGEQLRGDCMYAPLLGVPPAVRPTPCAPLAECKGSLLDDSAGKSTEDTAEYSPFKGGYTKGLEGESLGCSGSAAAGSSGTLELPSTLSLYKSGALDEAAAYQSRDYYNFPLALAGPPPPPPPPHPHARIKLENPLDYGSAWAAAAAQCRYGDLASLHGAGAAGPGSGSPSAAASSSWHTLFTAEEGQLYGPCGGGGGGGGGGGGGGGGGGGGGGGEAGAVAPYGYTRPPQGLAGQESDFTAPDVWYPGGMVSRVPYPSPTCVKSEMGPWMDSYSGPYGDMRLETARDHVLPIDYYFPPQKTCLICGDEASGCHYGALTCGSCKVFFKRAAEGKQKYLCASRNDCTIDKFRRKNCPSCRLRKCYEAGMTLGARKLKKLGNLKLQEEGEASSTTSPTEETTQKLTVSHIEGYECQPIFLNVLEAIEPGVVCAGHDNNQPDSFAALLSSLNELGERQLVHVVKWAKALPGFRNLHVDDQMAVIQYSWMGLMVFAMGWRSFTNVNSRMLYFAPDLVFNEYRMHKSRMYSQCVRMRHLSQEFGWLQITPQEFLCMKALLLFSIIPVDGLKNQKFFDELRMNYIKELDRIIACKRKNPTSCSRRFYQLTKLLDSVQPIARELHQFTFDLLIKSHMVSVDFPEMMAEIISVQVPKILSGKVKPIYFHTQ
As to the kind of experiment: Antagonism of compounds on nuclear translocation of androgen receptor (PathHunter NHR cell lines). It counts as cell-based. To be noted: antagonist mode, agonist 6a-Fluorotestosterone 0.06 μM (EC80). As to the method:
Example 75 Test of Antagonism of Compounds on Nuclear Translocation of Androgen Receptor (AR)
1. PathHunter NHR cell lines were recovered and cultured for amplification.
2. The cells were inoculated onto a 384-well plate prior to testing, and incubated at 37° C. The serum for culture was filtered with charcoal-dextran to reduce the hormone level therein.
3. In the detection of the antagonistic function, a compound was added to the cells and incubated for 60 min. The working concentration of the test compound was diluted from 10 μM at a 3-fold concentration gradient, respectively including: […]. Then, an agonist 6a-Fluorotestosterone 0.06 μM (concentration: EC80, i.e., 80% agonistic compound concentration) was added, and the mixture was incubated at 37° C. or at room temperature for 3-16 h.
4. Signal detection: 12.5 μL or 15 μL (50%, v/v) PathHunter detection mixed solution (kit: DiscoverX product catalog number: 93-0001 series) was added, and incubated at room temperature for 1 h. The chemiluminescent signal was read with a PerkinElmer Envision™ instrument.
5. Data analysis: The compound activity was analyzed with CBIS data analysis software (ChemInnovation, CA). The calculation formula of the inhibition percent of the antagonist is as follows: IC50 inhibition ratio (%)=[…]×(1−(average RLU value of the test compound−average RLU value of the blank control group)/(average RLU value of EC80 control group−average RLU value of the blank control group)).

The term TGI denotes the reduction of tumour growth relative to the control group. Lower therefore signals a weaker effect on the tumour. As usually defined, the IC50 is the midpoint of a concentration-inhibition curve. Read a high IC50 as lower potency. Turning to `CCc1nc(OCCO)c2cc(N3C(=S)N(c4ccc(C#N)c(C(F)(F)F)c4)C(=O)C3(C)C)cc(F)c2n1` [Compound 10], in assay [1] (50 mg/kg PO QD), the TGI came out at 83.0% and the “relative tumor proliferation rate T/C” value was 23.8%. The molecule further displayed an IC50 in assay [2] of 1.71 µM.
For `CCc1cc(=O)n2cc(N3C(=S)N(c4ccc(C#N)c(C(F)(F)F)c4)C(=O)C3(C)C)cc(F)c2n1` [Compound 35], in assay [1] (10 mg/kg PO QD), the TGI came to 59.36% and the “relative tumor proliferation rate T/C” value is listed as 47.39%. Moreover, in assay [1] (20 mg/kg PO QD), the TGI stood at 76.00% and the “relative tumor proliferation rate T/C” value turned out to be 32.47%. The molecule also yielded an IC50 in assay [2] of 2.31 µM.
As for `CCc1cc(=O)n2cc(N3C(=S)N(c4ccc(C#N)c(Cl)c4)C(=O)C3(C)C)cc(F)c2n1` [Compound 58], the TGI in assay [1] (10 mg/kg PO QD) was 62.75%; in assay [1] (20 mg/kg PO QD), 76.16%. The “relative tumor proliferation rate T/C” value in assay [1] (10 mg/kg PO QD) is on record as 43.93%; in assay [1] (20 mg/kg PO QD), 32.37%. Also, the IC50 in assay [2] was determined as 0.95 µM.
